{"source": "patent US20180110223A1", "about": "“PHENOXY- OR PYRIDIN-2-YLOXY-AMINOTRIAZINE COMPOUNDS AND THEIR USE AS HERBICIDES” (BASF SE, priority 2015, published 2018)", "type_in_all_cases": "in vivo", "key": {"Abutilon theophrasti [1]": {"system": "Abutilon theophrasti", "experiment": "greenhouse post-emergence treatment, ABUTH", "conditions": "scale from 0 to 100", "excerpt": "(§1) The culture containers used were plastic flowerpots containing loamy sand with approximately 3.0% of humus as the substrate. The seeds of the test plants were sown separately for each species.\n(§2) For the post-emergence treatment, the test plants were first grown to a height of 3 to 15 cm, depending on the plant habit, and only then treated with the active ingredients which had been suspended or emulsified in water. For this purpose, the test plants were either sown directly and grown in the same containers, or they were first grown separately as seedlings and transplanted into the test containers a few days prior to treatment.\n(§3) Depending on the species, the plants were kept at 10-25° C. or 20-35° C., respectively.\n(§4) The test period extended over 2 to 4 weeks. During this time, the plants were tended, and their response to the individual treatments was evaluated.\n(§5) Evaluation was carried out using a scale from 0 to 100. 100 means no emergence of the plants, or complete destruction of at least the aerial moieties, and 0 means no damage, or normal course of growth.\n(§6) The plants used in the greenhouse experiments were of the following species: […]"}, "Echinocloa crus-galli [2]": {"system": "Echinocloa crus-galli", "experiment": "greenhouse post-emergence treatment, ECHCG", "conditions": "scale from 0 to 100", "excerpt": "as §1, §2, §3, §4, §5, §6"}, "Setaria faberi [3]": {"system": "Setaria faberi", "experiment": "greenhouse post-emergence treatment, SETFA", "conditions": "scale from 0 to 100", "excerpt": "as §1, §2, §3, §4, §5, §6"}, "Amaranthus retroflexus [4]": {"system": "Amaranthus retroflexus", "experiment": "greenhouse post-emergence treatment, AMARE", "conditions": "scale from 0 to 100", "excerpt": "as §1, §2, §3, §4, §5, §6"}, "Viola arvensis": {"system": "Viola arvensis", "experiment": "greenhouse post-emergence treatment, VIOAR", "conditions": "1000 g/ha, scale from 0 to 100", "excerpt": "as §1, §2, §3, §4, §5, §6"}, "Alopecurus agrestis": {"system": "Alopecurus agrestis", "experiment": "greenhouse post-emergence treatment, ALOMY", "conditions": "500 g/ha, scale from 0 to 100", "excerpt": "as §1, §2, §3, §4, §5, §6"}, "Amaranthus retroflexus [5]": {"system": "Amaranthus retroflexus", "experiment": "greenhouse pre-emergence treatment, AMARE", "conditions": "scale from 0 to 100", "excerpt": "as §1\n(§7) For the pre-emergence treatment, the active ingredients, which had been suspended or emulsified in water, were applied directly after sowing by means of finely distributing nozzles. The containers were irrigated gently to promote germination and growth and subsequently covered with transparent plastic hoods until the plants had rooted. This cover caused uniform germination of the test plants, unless this had been impaired by the active ingredients.\nas §3, §4, §5, §6"}, "Echinocloa crus-galli [6]": {"system": "Echinocloa crus-galli", "experiment": "greenhouse pre-emergence treatment, ECHCG", "conditions": "scale from 0 to 100", "excerpt": "as §1, §7, §3, §4, §5, §6"}, "Setaria faberi [7]": {"system": "Setaria faberi", "experiment": "greenhouse pre-emergence treatment, SETFA", "conditions": "scale from 0 to 100", "excerpt": "as §1, §7, §3, §4, §5, §6"}, "Abutilon theophrasti [8]": {"system": "Abutilon theophrasti", "experiment": "greenhouse pre-emergence treatment, ABUTH", "conditions": "1000 g/ha, scale from 0 to 100", "excerpt": "as §1, §7, §3, §4, §5, §6"}, "Polygonum convolvulus": {"system": "Polygonum convolvulus", "experiment": "greenhouse post-emergence treatment, POLCO", "conditions": "125 g/ha, scale from 0 to 100", "excerpt": "as §1, §2, §3, §4, §5, §6"}}}
{"smiles": "CC(F)c1nc(N)nc(Oc2c(F)c(F)cc(F)c2F)n1", "note": "(stereo not drawn) [Example 1, 4-(1-fluoroethyl)-6-(2,3,5,6-tetrafluorophenoxy)-1,3,5-triazin-2-amine]", "values": [{"measurement": "herbicidal activity against ABUTH", "setting": "Abutilon theophrasti [1]; 3000 g/ha", "value": "good (a good herbicidal activity is given at values of at least 70)"}, {"measurement": "herbicidal activity against ECHCG", "setting": "Echinocloa crus-galli [2]; 3000 g/ha", "value": "very good (a very good herbicidal activity is given at values of at least 85)"}, {"measurement": "herbicidal activity against SETFA", "setting": "Setaria faberi [3]; 3000 g/ha", "value": "very good (a very good herbicidal activity is given at values of at least 85)"}]}
{"smiles": "CC(C)(F)c1nc(N)nc(Oc2c(F)c(F)c(F)c(F)c2F)n1", "note": "[Example 2]", "values": [{"measurement": "herbicidal activity against ECHCG", "setting": "Echinocloa crus-galli [2]; 3000 g/ha", "value": "very good (a very good herbicidal activity is given at values of at least 85)"}, {"measurement": "herbicidal activity against SETFA", "setting": "Setaria faberi [3]; 3000 g/ha", "value": "very good (a very good herbicidal activity is given at values of at least 85)"}]}
{"smiles": "CC(C)(F)c1nc(N)nc(Oc2c(F)ccc(F)c2F)n1", "note": "[Example 5]", "values": [{"measurement": "herbicidal activity against AMARE", "setting": "Amaranthus retroflexus [4]; 1000 g/ha", "value": "very good (a very good herbicidal activity is given at values of at least 85)"}]}
{"smiles": "CC(F)c1nc(N)nc(Oc2cccc(F)c2F)n1", "note": "(stereo not drawn) [Example 7]", "values": [{"measurement": "herbicidal activity against ECHCG", "setting": "Echinocloa crus-galli [2]; 1000 g/ha", "value": "very good (a very good herbicidal activity is given at values of at least 85)"}, {"measurement": "herbicidal activity against SETFA", "setting": "Setaria faberi [3]; 1000 g/ha", "value": "very good (a very good herbicidal activity is given at values of at least 85)"}]}
{"smiles": "CC(F)c1nc(N)nc(Oc2c(F)ccc(F)c2F)n1", "note": "(stereo not drawn) [Example 8]", "values": [{"measurement": "herbicidal activity against SETFA", "setting": "Setaria faberi [3]; 1000 g/ha", "value": "very good (a very good herbicidal activity is given at values of at least 85)"}, {"measurement": "herbicidal activity against AMARE", "setting": "Amaranthus retroflexus [4]; 1000 g/ha", "value": "very good (a very good herbicidal activity is given at values of at least 85)"}, {"measurement": "herbicidal activity against VIOR", "setting": "Viola arvensis", "value": "very good (a very good herbicidal activity is given at values of at least 85)"}]}
{"smiles": "CC(F)c1nc(N)nc(Oc2c(F)cc(F)c(F)c2F)n1", "note": "(stereo not drawn) [Example 9]", "values": [{"measurement": "herbicidal activity against SETFA", "setting": "Setaria faberi [3]; 1000 g/ha", "value": "very good (a very good herbicidal activity is given at values of at least 85)"}, {"measurement": "herbicidal activity against AMARE", "setting": "Amaranthus retroflexus [4]; 1000 g/ha", "value": "very good (a very good herbicidal activity is given at values of at least 85)"}, {"measurement": "herbicidal activity against VIOR", "setting": "Viola arvensis", "value": "very good (a very good herbicidal activity is given at values of at least 85)"}]}
{"smiles": "Nc1nc(Oc2c(F)cc(F)c(F)c2F)nc(C(F)(F)F)n1", "note": "[Example 11]", "values": [{"measurement": "herbicidal activity against SETFA", "setting": "Setaria faberi [3]; 1000 g/ha", "value": "very good (a very good herbicidal activity is given at values of at least 85)"}]}
{"smiles": "CCC(C)(F)c1nc(N)nc(Oc2c(F)cc(F)c(F)c2F)n1", "note": "(stereo not drawn) [Example 19]", "values": [{"measurement": "herbicidal activity against AMARE", "setting": "Amaranthus retroflexus [4]; 500 g/ha", "value": "very good (a very good herbicidal activity is given at values of at least 85)"}]}
{"smiles": "CC(C)(C#N)c1nc(N)nc(Oc2c(F)c(F)c(F)c(F)c2F)n1", "note": "[Example 22]", "values": [{"measurement": "herbicidal activity against ALOMY", "setting": "Alopecurus agrestis", "value": "good (a good herbicidal activity is given at values of at least 70)"}]}
{"smiles": "CCC(F)c1nc(N)nc(Oc2c(F)cc(F)c(F)c2F)n1", "note": "(stereo not drawn) [Example 23]", "values": [{"measurement": "herbicidal activity against AMARE", "setting": "Amaranthus retroflexus [5]; 1000 g/ha", "value": "very good (a very good herbicidal activity is given at values of at least 85)"}, {"measurement": "herbicidal activity against ECHCG", "setting": "Echinocloa crus-galli [6]; 1000 g/ha", "value": "very good (a very good herbicidal activity is given at values of at least 85)"}, {"measurement": "herbicidal activity against SETFA", "setting": "Setaria faberi [7]; 1000 g/ha", "value": "very good (a very good herbicidal activity is given at values of at least 85)"}]}
{"smiles": "CCC(F)c1nc(N)nc(Oc2c(F)c(F)c(F)c(F)c2F)n1", "note": "(stereo not drawn) [Example 24]", "values": [{"measurement": "herbicidal activity against ECHCG", "setting": "Echinocloa crus-galli [6]; 1000 g/ha", "value": "very good (a very good herbicidal activity is given at values of at least 85)"}, {"measurement": "herbicidal activity against SETFA", "setting": "Setaria faberi [7]; 1000 g/ha", "value": "very good (a very good herbicidal activity is given at values of at least 85)"}, {"measurement": "herbicidal activity against ABUTH", "setting": "Abutilon theophrasti [8]", "value": "very good (a very good herbicidal activity is given at values of at least 85)"}]}
{"smiles": "Nc1nc(Oc2c(F)cc(F)c(F)c2F)nc(-c2cccs2)n1", "note": "[Example 25]", "values": [{"measurement": "herbicidal activity against ECHCG", "setting": "Echinocloa crus-galli [2]; 500 g/ha", "value": "good (a good herbicidal activity is given at values of at least 70)"}]}
{"smiles": "Nc1nc(Oc2c(F)cc(F)c(F)c2F)nc(-c2ccc(Cl)s2)n1", "note": "[Example 27]", "values": [{"measurement": "herbicidal activity against AMARE", "setting": "Amaranthus retroflexus [4]; 500 g/ha", "value": "herbicidal activity"}]}
{"smiles": "Cc1ccc(-c2nc(N)nc(Oc3c(F)cc(F)c(F)c3F)n2)o1", "note": "[Example 32]", "values": [{"measurement": "herbicidal activity against ABUTH", "setting": "Abutilon theophrasti [1]; 1000 g/ha", "value": "very herbicidal activity"}]}
{"smiles": "Nc1nc(Oc2c(F)cc(F)c(F)c2F)nc(C2CCCO2)n1", "note": "(stereo not drawn) [Example 33]", "values": [{"measurement": "herbicidal activity against POLCO", "setting": "Polygonum convolvulus", "value": "very good (a very good herbicidal activity is given at values of at least 85)"}]}
{"smiles": "Nc1nc(Oc2c(F)cc(F)c(F)c2F)nc([C@H]2CCCO2)n1", "note": "[Example 34]", "values": [{"measurement": "herbicidal activity against AMARE", "setting": "Amaranthus retroflexus [5]; 500 g/ha", "value": "good (a good herbicidal activity is given at values of at least 70)"}, {"measurement": "herbicidal activity against SETFA", "setting": "Setaria faberi [7]; 500 g/ha", "value": "good (a good herbicidal activity is given at values of at least 70)"}]}
{"smiles": "Nc1nc(Oc2c(F)cc(F)c(F)c2F)nc([C@@H]2CCCO2)n1", "note": "[Example 35]", "values": [{"measurement": "herbicidal activity against AMARE", "setting": "Amaranthus retroflexus [4]; 500 g/ha", "value": "good (a good herbicidal activity is given at values of at least 70)"}]}
{"smiles": "Cc1ncoc1-c1nc(N)nc(Oc2c(F)cc(F)c(F)c2F)n1", "note": "[Example 38]", "values": [{"measurement": "herbicidal activity against ECHCG", "setting": "Echinocloa crus-galli [2]; 1000 g/ha", "value": "good (a good herbicidal activity is given at values of at least 70)"}]}
{"smiles": "CC(F)c1nc(N)nc(Oc2c(F)c(F)c(F)c(I)c2F)n1", "note": "(stereo not drawn) [Example 39]", "values": [{"measurement": "herbicidal activity against ECHCG", "setting": "Echinocloa crus-galli [2]; 500 g/ha", "value": "good (a good herbicidal activity is given at values of at least 70)"}, {"measurement": "herbicidal activity against SETFA", "setting": "Setaria faberi [3]; 500 g/ha", "value": "very good (a very good herbicidal activity is given at values of at least 85)"}]}
{"smiles": "CC(C)C(F)c1nc(N)nc(Oc2c(F)cc(F)c(F)c2F)n1", "note": "(stereo not drawn) [Example 42]", "values": [{"measurement": "herbicidal activity against AMARE", "setting": "Amaranthus retroflexus [5]; 500 g/ha", "value": "good (a good herbicidal activity is given at values of at least 70)"}, {"measurement": "herbicidal activity against ECHCG", "setting": "Echinocloa crus-galli [6]; 500 g/ha", "value": "good (a good herbicidal activity is given at values of at least 70)"}, {"measurement": "herbicidal activity against SETFA", "setting": "Setaria faberi [7]; 500 g/ha", "value": "very good (a very good herbicidal activity is given at values of at least 85)"}]}
